From patent US20130317029A1 (PORTOLA PHARMACEUTICALS, INC., priority 2010, published 2013)

Target: T1, full length active recombinant SYK enzyme (Homo sapiens, UniProt P43405)
T1 construct: full length active recombinant SYK enzyme (Millipore, Calif.); purchased Millipore
Assay: Inhibition of Syk tyrosine phosphorylation activity (LANCE TR-FRET kinase assay)
Format: biochemical
From the text: This example illustrates methods for evaluating the compounds of the invention, along with results obtained for such assays. The in vitro and in vivo human Syk activities of the inventive compounds can be determined by various procedures known in the art, such as a test for their ability to inhibit the activity of human plasma Syk. […] The IC50 value is the concentration (in nM) of the compound required to provide 50% inhibition of human Syk proteolytic activity.
Potency of candidate molecules for inhibiting Syk tyrosine phosphorylation activity is assessed by measuring the ability of a test compound to inhibit Syk-mediated tyrosine phosphorylation of a Syk-specific substrate.
SYK tyrosine phosphorylation activity is measured using the LANCE™ Technology developed by Perkin Elmer Life and Analytical Sciences (Boston, Mass.). LANCE™ refers to homogeneous time resolved fluorometry applications using techniques such as time-resolved fluorescence resonance energy transfer assay (TR-FRET) (see generally for procedures in Perkin Elmer Application Note—How to Optimize a Tyrosine Kinase Assay Using Time Resolved Fluorescence-Based LANCE Detection, wwww.perkinelmer.com/lifesciences). The assay principle involves detection of a phosphorylated substrate using energy transfer from a phosphospecific europium-labeled antibody to streptavidin-allophycocyanin as an acceptor.
To test the ability of candidate molecules to inhibit SYK tyrosine phosphorylation activity, molecules are reconstituted in 30% DMSO and serially diluted 1:3 with the final dilution containing DMSO in the absence of the candidate molecule. The final DMSO concentration in the assay is 3%. Kinase assays are performed as a two part reaction. The first reaction is a kinase reaction and which comprises of a candidate molecule, full length active recombinant SYK enzyme (Millipore, Calif.) and biotin-labeled SYK-specific substrate biotin-[…]-OH. The second reaction involves termination of the kinase reaction and the simultaneous addition of the detection reagents-europium-labeled anti-phosphotyrosine reagent (Eu-W1024-PY100, Perkin Elmer, Boston, Mass.) and Streptavidin-Allophycocyanin detection reagent (SA-APC, Prozyme, Calif.). The kinase reaction is performed in a black U-bottom 96-well microtitre plate. The final reaction volume is 50 μL and contains a final concentration of 1 nM active SYK enzyme, 550 nM SYK-substrate, and 100 μM ATP diluted in a buffer containing 50 mM Tris pH 7.5, 5 mM MgCl2, and 1 mM DTT. The reaction is allowed to proceed for 1 hour at room temperature. The quench buffer contains 100 mM Tris pH 7.5, 300 mM NaCl2, 20 mM EDTA, 0.02% Brij35, and 0.5% BSA. The detection reagents are added to the reaction mixture at the following dilutions-1:500 for Eu-W1024-PY100 and 1:250 for SA-APC. The kinase reaction is terminated by the addition of 50 μL quench buffer containing the detection reagents. The detection is allowed to proceed for 1 hr at room temperature. Detection of the phosphorlated substrate in the absence and presence of inhibitors is measured in the TR-FRET instrument, Analyst HT (Molecular Probes, Sunnyvale, Calif.) and the condition for measurements are set up using CriterionHost Release 2.0 (Molecular Probes, Sunnyvale, Calif.). The settings used are a follows: excitation 360 nm, emission 665-7.5 nm, beam splitter 350 nm 50/50, flash 100 pulses, delay 60 us, integration 400 us, z-height 2 mm. Inhibition of SYK-tyrosine kinase activity is calculated as the maximum response observed in the presence of inhibitor, compared to that in the absence of inhibitor. IC50s were derived by non-linear regression analysis.

SMILES	IC50 [nM]
CC(C)[C@@H](Nc1nc(Nc2cccc(-c3ncccn3)c2)c(C(N)=O)c(=O)[nH]1)C(N)=O [Example 28, (R)-2-(1-amino-3-methyl-1-oxobutan-2-ylamino)-6-oxo-4-(3-(pyrimidin-2-yl)phenylamino)-1,6-dihydropyrimidine-5-carboxamide]	10 to 100
CC(C)C[C@@H](Nc1nc(Nc2ccc3ncsc3c2)c(C(N)=O)c(=O)[nH]1)C(N)=O [Example 29]	< 1
CC(C)[C@@H](Nc1nc(Nc2ccc3ncsc3c2)c(C(N)=O)c(=O)[nH]1)C(N)=O [Example 30]	< 1
CC[C@@H](Nc1nc(Nc2ccc3ncsc3c2)c(C(N)=O)c(=O)[nH]1)C(N)=O [Example 31]	< 1
CC(C)C[C@@H](Nc1nc(Nc2cccc(-n3cccn3)c2)c(C(N)=O)c(=O)[nH]1)C(N)=O [Example 32]	1 to 10
CC(C)[C@@H](Nc1nc(Nc2cccc(-n3cccn3)c2)c(C(N)=O)c(=O)[nH]1)C(N)=O [Example 33]	1 to 10
CC[C@@H](Nc1nc(Nc2cccc(-n3cccn3)c2)c(C(N)=O)c(=O)[nH]1)C(N)=O [Example 34]	1 to 10
CC(C)C[C@@H](Nc1nc(Nc2ccc3cn[nH]c3c2)c(C(N)=O)c(=O)[nH]1)C(N)=O [Example 35, (R)-4-(1H-indazol-6-ylamino)-2-(1-amino-4-methyl-1-oxopentan-2-ylamino)-6-oxo-1,6-dihydropyrimidine-5-carboxamide]	< 1
CC[C@@H](Nc1nc(Nc2ccc3cn[nH]c3c2)c(C(N)=O)c(=O)[nH]1)C(N)=O [Example 36]	< 1
NC(=O)c1c(Nc2cccc(-n3nccn3)c2)nc(N[C@@H]2CCCNC2)[nH]c1=O [Example 37]	< 1
NC(=O)c1c(Nc2cccc(-c3ncccn3)c2)nc(N[C@@H]2CCCC[C@@H]2N)[nH]c1=O [Example 38]	1 to 10
CC[C@@H](Nc1nc(Nc2cccc(OC)c2)c(C(N)=O)c(=O)[nH]1)C(N)=O [Example 39, (R)-2-(1-amino-1-oxobutan-2-ylamino)-4-(3-(methoxy)phenylamino)-6-oxo-1,6-dihydropyrimidine-5-carboxamide]	1 to 10
CC(C)C[C@@H](Nc1nc(Nc2cccc(-c3ccccn3)c2)c(C(N)=O)c(=O)[nH]1)C(N)=O [Example 40, (R)-2-(1-amino-4-methyl-1-oxopentan-2-ylamino)-6-oxo-4-(3-(pyridin-2-yl)phenylamino)-1,6-dihydropyrimidine-5-carboxamide]	1 to 10
CC[C@@H](Nc1nc(Nc2cccc(-c3ccccn3)c2)c(C(N)=O)c(=O)[nH]1)C(N)=O [Example 41, (R)-2-(1-amino-1-oxobutan-2-ylamino)-6-oxo-4-(3-(pyridin-2-yl)phenylamino)-1,6-dihydropyrimidine-5-carboxamide]	1 to 10
NC(=O)c1c(Nc2ccc(S(N)(=O)=O)cc2)nc(NC2CC2)[nH]c1=O [Example 42, 2-(cyclopropylamino)-6-oxo-4-(4-sulfamoylphenylamino)-1,6-dihydropyrimidine-5-carboxamide]	10 to 100
CC(=O)N(C)c1ccc(Nc2nc(NC3CC3)[nH]c(=O)c2C(N)=O)cc1 [Example 43, 2-(cyclopropylamino)-4-(4-(N-methylacetamido)phenylamino)-6-oxo-1,6-dihydropyrimidine-5-carboxamide]	> 1000
NC(=O)c1c(NC2CC2)nc(Nc2ccc(S(N)(=O)=O)cc2)[nH]c1=O [Example 44, 4-(cyclopropylamino)-6-oxo-2-(4-sulfamoylphenylamino)-1,6-dihydropyrimidine-5-carboxamide]	> 1000
NC(=O)c1c(NC2CCC2)nc(Nc2ccc(S(N)(=O)=O)cc2)[nH]c1=O [Example 45, 4-(cyclobutylamino)-6-oxo-2-(4-sulfamoylphenylamino)-1,6-dihydropyrimidine-5-carboxamide]	> 1000
CC(=O)N1CCN(c2ccc(Nc3nc(Nc4ccc(N5CCN(C(C)=O)CC5)cc4)c(C(N)=O)c(=O)[nH]3)cc2)CC1 [Example 46, 2,4-bis(4-(4-acetylpiperazin-1-yl)phenylamino)-6-oxo-1,6-dihydropyrimidine-5-carboxamide]	> 1000
